Laboratory results published in ChEMBL document CHEMBL1201862, “PubChem BioAssay data set” (2004).
Activity calls are given as the source filed them.

Tests used:
[1] = target: Sphingosine 1-phosphate receptor 2 (Homo sapiens, UniProt O95136); assay: Dose Response Cell Based Assay for Antagonists of the S1P2 Receptor. [Related pubchem assays: 856, 736 ]; type: functional
Galanin receptor type 2 = Galanin receptor type 2 (Homo sapiens, UniProt O43603); assay: Dose Response cell-based high-throughput screening assay to identify antagonists of galanin receptor 2 (GALR2). [Related pubchem assays: 828, 866 ]; type: functional
Protein Tat = Protein Tat (Human immunodeficiency virus type 1 group M subtype B (isolate HXB2)(HIV-1), UniProt P04608); type: functional;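 note: tat binding to TAR RNA read out by fluorescence polarization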
fMet-Leu-Phe receptor = fMet-Leu-Phe receptor (Homo sapiens, UniProt P21462); assay: FPR ligands, dose response (AID 519); type: functional
Cytochrome P450 3A4 = Cytochrome P450 3A4 (Homo sapiens, UniProt P08684);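 note: CYP3A4 tested as one member of a cytochrome P450 panel screen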
[2] = target: Induced myeloid leukemia cell differentiation protein Mcl-1 (Homo sapiens, UniProt Q07820); type: functional
[3] = target: Mitogen-activated protein kinase 10 (Homo sapiens, UniProt P53779); assay: Dose response biochemical screening assay for inhibitors of c-Jun N-Terminal Kinase 3 (JNK3). [Related pubchem assays: 746 ]
[4] = inhibitors of PGC1a acetylation in cells, dose response, cell-based, cherry-picked samples (AID 720514); type: functional;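 note: potency may reflect raised or lowered acetylation signal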
[5] = Vero E6 cell cytotoxicity, dose response, cytotoxicity control for non-replicating M. tuberculosis project, secondary assay (AID 492998); type: functional, VeroE6; conditions: Vero C1008
Paired box protein Pax-8 = Paired box protein Pax-8 (Homo sapiens, UniProt Q06710); assay: inhibitors of PAX8-driven TPO luciferase reporter, dose response, RMG-I cells, cherry-pick (AID 687027); type: functional, cell-based;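 note: luciferase reporter driven by Pax8 target thyroperoxidase promoter measured by SteadyGlo luminescence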
[6] = THP-1 cell cytotoxicity, dose response, cytotoxicity control for non-replicating M. tuberculosis project (AID 489025); type: functional
cells [7] = type: functional
[8] = HepG2 cell cytotoxicity, dose response, cytotoxicity control for non-replicating M. tuberculosis project (AID 489018); type: functional; conditions: Mycobacterium tuberculosis
[9] = target: T1, Microphthalmia-associated transcription factor (Homo sapiens, UniProt O75030); assay: TRPM1 promoter luciferase signal decrease, dose response, MITF inhibitor project, cell-based, SK-MEL-5, cherry-picked, set 3 (AID 493073); type: functional
T1 sequence (O75030 whole entry): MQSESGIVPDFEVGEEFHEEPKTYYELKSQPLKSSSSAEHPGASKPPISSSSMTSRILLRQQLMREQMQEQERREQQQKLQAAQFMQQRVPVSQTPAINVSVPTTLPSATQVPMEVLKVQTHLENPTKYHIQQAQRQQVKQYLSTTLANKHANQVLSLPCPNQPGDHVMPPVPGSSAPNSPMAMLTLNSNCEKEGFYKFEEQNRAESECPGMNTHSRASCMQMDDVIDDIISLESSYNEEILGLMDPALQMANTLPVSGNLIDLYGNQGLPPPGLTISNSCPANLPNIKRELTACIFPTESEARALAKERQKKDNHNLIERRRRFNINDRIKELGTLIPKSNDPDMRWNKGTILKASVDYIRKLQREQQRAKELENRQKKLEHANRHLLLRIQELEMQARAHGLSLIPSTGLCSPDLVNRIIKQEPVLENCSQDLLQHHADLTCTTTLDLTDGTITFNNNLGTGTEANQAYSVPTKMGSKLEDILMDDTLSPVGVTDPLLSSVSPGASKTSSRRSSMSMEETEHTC

[10] = target: Glucose-6-phosphate 1-dehydrogenase (Homo sapiens, UniProt P11413); assay: human G6PD enzyme inhibitors, dose response, selectivity assay for P. falciparum G6PD inhibitor project, biochemical, fluorescence (AID 504792); type: functional
[11] = HEp-2 cell cytotoxicity, dose response, cytotoxicity control for RSV inhibitor project, HTS (AID 2410); type: functional; conditions: human respiratory syncytial virus
cells [12] = assay: cells
Genome polyprotein = Genome polyprotein (Hepatitis C virus, UniProt Q2Q167); assay: HCV core protein dimerization inhibitors, dose response, biochemical, TR-FRET (AID 2159); set-up: species or system Hepacivirus hominis;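 note: blocks dimerization of HCV core protein measured by TR-FRET between tagged core106 pairs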
Major prion protein = Major prion protein (Homo sapiens, UniProt P04156); type: functional, cell-based
[13] = target: Heat shock protein HSP 90-alpha (Homo sapiens, UniProt P07900); assay: Luminescence-based dose response biochemical high throughput screening assay for inhibitors of the Heat Shock Protein 90 (HSP90). [Related pubchem assays: 1831 (Summary AID.), 1846 (Confirmation screen.), 1789 (Primary screen.)]
Large T antigen = Large T antigen (Simian virus 40, UniProt P03070); type: functional, Betapolyomavirus macacae;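 note: Confirmatory-stage PubChem screen for compounds that inhibit SV40 T antigen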

O=C(Nc1ccc(F)cc1)c1sccc1S(=O)(=O)Cc1cccc(C(F)(F)F)c1
IC50 [1]: 18.4 µM (not active)

O=C(Nc1ccc2[nH]c(-c3cccnc3)nc2c1)C12CC3CC(CC(C3)C1)C2
IC50 (Galanin receptor type 2): > 42 µM (not active)

CCOC(=O)C1=C(O)/C(=C/c2ccc(CNC(=O)C(=O)Nc3ccc(C)cc3)o2)N=C1C
IC50 (Protein Tat): 47.8 µM (inconclusive)

O=C(NC1CCCCC1)c1sc(=S)n2c1[nH]c(=O)c1ccccc12
Ki (fMet-Leu-Phe receptor): 40.6 µM (inactive)
AC50 (Cytochrome P450 3A4): 0.794 µM (inconclusive)
IC50 [2]: > 54 µM (active)

Cc1cccc(-n2ncc3c(NCc4cccs4)ncnc32)c1
IC50 [3]: 72 µM (not active)

Cc1cccc(C2CC(c3ccc(Cl)cc3)Nc3nc(N)nn32)c1 (centres undefined)
Ki (fMet-Leu-Phe receptor): > 66.7 µM (inactive)

Cn1nnnc1Sc1ncnc2scc(-c3ccc[nH]3)c12
AC50 [4]: 7.84 µM (active)
CC50 [5]: 13 µM (active)
AC50 (Paired box protein Pax-8): 2.96 µM (active)
CC50 [6]: 14.8 µM (active)
IC50 (cells [7]): 15.2 µM (active)
CC50 [8]: 15.8 µM (active)
AC50 [9]: 7.32 µM (active)

Brc1cc2[nH]cnc2c2ccccc12
IC50 [10]: > 80 µM (inactive)
CC50 [11]: 37.8 µM (active)
IC50 (cells [12]): > 138 µM (inactive)
IC50 (Genome polyprotein): > 49.8 µM (not active)
IC50 (Major prion protein): 5.96 µM (active)

O=c1c2c(nc3n1CCCCC3)sc1c(O)cccc12
IC50 [3]: 55.7 µM (not active)

C=CCc1ccc(OCc2ccc(C(=O)OC)o2)c(OC)c1
IC50 [13]: 7.02 µM (active)

CC(NC(=O)Nc1ccc(O)cc1)(C(F)(F)F)C(F)(F)F
IC50 (Protein Tat): 44.8 µM (inconclusive)
IC50 (Large T antigen): 14.3 µM (active)
